From ChEMBL document CHEMBL3877320, “Synthesis of new analogs of AKBA and evaluation of their anti-inflammatory activities” (Bioorg Med Chem, 2017)
Converted amounts (≈) assume the structure as drawn.

Assay: Inhibition of potato 5-lipoxygenase using linoleic acid as substrate preincubated for 2 mins followed by substrate addition measured for 120 secs
Design: species or system Solanum tuberosum

Row | SMILES | IC50 [µg/mL]
1 | COC(=O)[C@@]1(C)C(=O)C(C#N)=C[C@]2(C)[C@H]3C(=O)C=C4[C@@H]5[C@@H](C)[C@H](C)CC[C@]5(C)CC[C@@]4(C)[C@]3(C)CC[C@@H]12 | > 100
2 | C[C@H]1[C@H](C)CC[C@]2(C)CC[C@]3(C)C(=CC(=O)[C@@H]4[C@@]5(C)CC(C=O)C(=O)[C@@H](C)[C@@H]5CC[C@]43C)[C@H]12 (some centres undefined) | 44.14 (≈ 97.5 µM)
3 | C[C@H]1[C@H](C)CC[C@]2(C)CC[C@]3(C)C(=CC(=O)[C@@H]4[C@@]5(C)Cc6cnoc6[C@](C)(C(=O)N6CCN(C)CC6)[C@@H]5CC[C@]43C)[C@H]12 | > 100
4 | C[C@H]1[C@H](C)CC[C@]2(C)CC[C@]3(C)C(=CC(=O)[C@@H]4[C@@]5(C)Cc6cn[nH]c6[C@](C)(C(=O)O)[C@@H]5CC[C@]43C)[C@H]12 | > 100
5 | C[C@H]1[C@H](C)CC[C@]2(C)CC[C@]3(C)C(=CC(=O)[C@@H]4[C@@]5(C)Cc6cn[nH]c6[C@](C)(C(=O)N6CCNCC6)[C@@H]5CC[C@]43C)[C@H]12 | > 100
6 | C[C@H]1[C@H](C)CC[C@]2(C)CC[C@]3(C)C(=CC(=O)[C@@H]4[C@@]5(C)Cc6cn[nH]c6[C@](C)(C(=O)N6CCN(C)CC6)[C@@H]5CC[C@]43C)[C@H]12 | > 100
7 | CC(=O)O[C@@H]1CC[C@@]2(C)[C@@H](CC[C@]3(C)[C@@H]2C(=O)C=C2[C@@H]4[C@@H](C)[C@H](C)CC[C@]4(C)CC[C@]23C)[C@@]1(C)C(=O)O [AKBA] | 94.6 (≈ 185 µM)
8 | COC(=O)[C@@]1(C)c2oncc2C[C@@]2(C)[C@H]1CC[C@]1(C)[C@@H]2C(=O)C=C2[C@@H]3[C@@H](C)[C@H](C)CC[C@]3(C)CC[C@]21C | > 100
9 | C[C@H]1[C@H](C)CC[C@]2(C)CC[C@]3(C)C(=CC(=O)[C@@H]4[C@@]5(C)CC(C=O)C(=O)[C@](C)(C(=O)Nc6ccccc6)[C@@H]5CC[C@]43C)[C@H]12 (some centres undefined) | 19.53 (≈ 34.2 µM)

Results, then the compound that gave them:

Row | IC50 [µg/mL] | SMILES
10 | > 100 | C[C@H]1[C@H](C)CC[C@]2(C)CC[C@]3(C)C(=CC(=O)[C@@H]4[C@@]5(C)Cc6cn[nH]c6[C@](C)(C(=O)N6CCCCC6)[C@@H]5CC[C@]43C)[C@H]12
11 | > 100 | C[C@H]1[C@H](C)CC[C@]2(C)CC[C@]3(C)C(=CC(=O)[C@@H]4[C@@]5(C)CC(C=O)C(=O)[C@](C)(C(=O)N6CCCCC6)[C@@H]5CC[C@]43C)[C@H]12 (some centres undefined)
12 | > 100 | C[C@H]1[C@H](C)CC[C@]2(C)CC[C@]3(C)C(=CC(=O)[C@@H]4[C@@]5(C)CC(C=O)C(=O)[C@](C)(C(N)=O)[C@@H]5CC[C@]43C)[C@H]12 (some centres undefined)
13 | 20.31 (≈ 36.2 µM) | C[C@H]1[C@H](C)CC[C@]2(C)CC[C@]3(C)C(=CC(=O)[C@@H]4[C@@]5(C)Cc6cnoc6[C@](C)(C(=O)N6CCCCC6)[C@@H]5CC[C@]43C)[C@H]12
14 | > 100 | C[C@H]1[C@H](C)CC[C@]2(C)CC[C@]3(C)C(=CC(=O)[C@@H]4[C@@]5(C)CC(C=O)C(=O)[C@](C)(C(=O)N6CCOCC6)[C@@H]5CC[C@]43C)[C@H]12 (some centres undefined)
